# Reference: ChEMBL document CHEMBL5108045, “Identification and Utilization of a Chemical Probe to Interrogate the Roles of PIKfyve in the Lifecycle of β-Coronaviruses” (J Med Chem, 2022)
# Calls of active or inactive are those of the source. No cut-off for these calls is given here.
# What was measured:
# [1] = target: T1, 1-phosphatidylinositol 3-phosphate 5-kinase (Homo sapiens, UniProt Q9Y2I7); experiment: Inhibition of human GST tagged PIKFYVE (1493 to end residues) expressed in baculovirus-infected Sf9 cells using PI(3)P:PS as substrate incubated for 60 mins in presence of ATP by ADP-Glo assay
# T1 sequence (Q9Y2I7 whole entry): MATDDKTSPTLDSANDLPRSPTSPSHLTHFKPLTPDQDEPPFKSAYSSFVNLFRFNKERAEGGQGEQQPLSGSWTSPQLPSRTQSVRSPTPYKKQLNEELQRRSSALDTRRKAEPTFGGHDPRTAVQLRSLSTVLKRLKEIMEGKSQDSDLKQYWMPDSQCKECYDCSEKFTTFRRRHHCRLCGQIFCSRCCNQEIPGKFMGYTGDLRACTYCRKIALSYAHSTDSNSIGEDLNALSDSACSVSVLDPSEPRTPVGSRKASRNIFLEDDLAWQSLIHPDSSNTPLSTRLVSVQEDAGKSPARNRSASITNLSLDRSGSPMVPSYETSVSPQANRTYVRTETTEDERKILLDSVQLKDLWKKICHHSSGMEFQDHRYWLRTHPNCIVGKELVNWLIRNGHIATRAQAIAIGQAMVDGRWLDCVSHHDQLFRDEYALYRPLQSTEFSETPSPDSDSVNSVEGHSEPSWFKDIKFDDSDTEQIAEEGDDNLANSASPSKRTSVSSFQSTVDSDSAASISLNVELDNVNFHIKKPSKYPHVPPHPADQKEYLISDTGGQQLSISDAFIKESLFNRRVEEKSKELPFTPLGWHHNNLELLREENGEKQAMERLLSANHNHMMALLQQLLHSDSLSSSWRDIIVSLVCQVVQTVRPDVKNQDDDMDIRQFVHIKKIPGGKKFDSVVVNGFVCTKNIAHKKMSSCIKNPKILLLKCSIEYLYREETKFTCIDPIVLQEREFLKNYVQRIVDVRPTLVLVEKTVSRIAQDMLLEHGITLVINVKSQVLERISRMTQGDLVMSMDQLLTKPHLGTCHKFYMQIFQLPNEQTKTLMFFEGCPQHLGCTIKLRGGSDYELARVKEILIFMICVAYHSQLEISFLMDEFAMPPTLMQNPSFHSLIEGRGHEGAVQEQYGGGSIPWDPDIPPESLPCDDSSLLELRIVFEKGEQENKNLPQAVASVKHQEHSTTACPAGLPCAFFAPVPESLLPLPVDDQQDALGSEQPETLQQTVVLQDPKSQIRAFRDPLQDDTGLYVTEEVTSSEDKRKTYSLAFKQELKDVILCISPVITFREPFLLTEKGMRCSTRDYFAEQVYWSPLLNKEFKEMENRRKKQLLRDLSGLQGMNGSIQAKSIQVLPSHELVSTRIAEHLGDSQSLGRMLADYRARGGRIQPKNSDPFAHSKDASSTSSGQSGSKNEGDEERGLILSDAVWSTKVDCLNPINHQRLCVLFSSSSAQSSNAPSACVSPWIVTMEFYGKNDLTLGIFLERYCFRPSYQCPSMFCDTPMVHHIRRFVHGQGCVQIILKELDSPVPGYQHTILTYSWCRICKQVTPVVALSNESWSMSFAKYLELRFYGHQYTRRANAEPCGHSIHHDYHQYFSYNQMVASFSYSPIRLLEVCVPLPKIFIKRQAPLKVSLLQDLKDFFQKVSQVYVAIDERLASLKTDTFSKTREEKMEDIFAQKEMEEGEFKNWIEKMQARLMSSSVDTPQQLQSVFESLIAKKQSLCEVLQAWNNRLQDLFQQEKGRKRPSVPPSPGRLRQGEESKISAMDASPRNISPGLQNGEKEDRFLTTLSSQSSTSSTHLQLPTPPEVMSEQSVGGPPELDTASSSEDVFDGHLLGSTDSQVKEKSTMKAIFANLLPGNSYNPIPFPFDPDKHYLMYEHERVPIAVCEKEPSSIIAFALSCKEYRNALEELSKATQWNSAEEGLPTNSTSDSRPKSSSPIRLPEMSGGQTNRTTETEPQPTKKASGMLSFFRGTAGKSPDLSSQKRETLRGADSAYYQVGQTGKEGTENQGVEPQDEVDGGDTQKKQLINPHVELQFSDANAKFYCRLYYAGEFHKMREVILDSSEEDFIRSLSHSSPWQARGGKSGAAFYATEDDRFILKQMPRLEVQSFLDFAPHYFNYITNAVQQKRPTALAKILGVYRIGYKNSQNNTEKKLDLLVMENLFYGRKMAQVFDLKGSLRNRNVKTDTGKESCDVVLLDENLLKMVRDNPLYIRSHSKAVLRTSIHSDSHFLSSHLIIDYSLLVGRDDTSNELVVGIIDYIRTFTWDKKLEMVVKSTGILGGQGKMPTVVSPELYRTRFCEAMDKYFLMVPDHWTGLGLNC
# [2] = target: T1, 1-phosphatidylinositol 3-phosphate 5-kinase; experiment: Inhibition of PIKFYVE in HEK293 cells by NanoBRET assay; format: cell-based
# Murine hepatitis virus = experiment: microbe, parasite or virus in culture; settings: Murine coronavirus, Astrocytoma delayed brain tumor (DBT) cell
# Description: Antiviral activity against MHV-nLuc infected in DBT cells assessed as effect on cell viability by LDH assay
# SARS-CoV-2 = experiment: microbe, parasite or virus in culture; settings: Severe acute respiratory syndrome coronavirus 2, A549-ACE2
# Description: Antiviral activity against SARS-CoV-2 infected in human A549-ACE2 cells assessed as effect on cell viability pretreated with compound for 1 hr followed by viral infection measured after 2 hrs by Nano-Glo reagent based LDH assay
# SH-SY5Y = experiment: Induction of lysosome dysfunction in human SH-SY5Y cells at 5 uM incubated for 24 hrs by lyso-tracker red DND-99 based confocal microscopic method; format: functional, cell-based
# [3] = (§1) Inhibition of His-6 tagged SARS-CoV-2 spike protein uptake in human Caco-2 cells at 1 uM incubated for 1 hr by fluorescence based analysis relative control; format: functional
# [4] = (§2) Inhibition of His-6 tagged SARS-CoV-2 spike protein uptake in human Calu-3 cells at 1 uM incubated for 1 hr by fluorescence based analysis relative control; format: functional
# [5] = Microsomal stability in CD-1 mouse liver microsomal assessed as parent compound remaining preincubated for 5 mins followed by NADPH addition measured after 30 mins by LC-TOFMS; format: ADME, subcellular; settings: liver microsomes, time 35 min, read-out: Stability
# Calu-3 [6] = experiment: Inhibition of lentivirus pseudotyped with SARS-CoV-2 spike glycoprotein uptake in human Calu-3 cells at 1 uM preincubated for 1 hr prior to viral infection for 12 hrs by fluorescence based analysis; format: functional, cell-based
# Caco-2 = experiment: as §1; format: functional
# Calu-3 [7] = experiment: as §2; format: functional
# [8] = target: Serine/threonine-protein kinase TAO3 (Homo sapiens) (UniProt Q9H2K8); experiment: Inhibition of human wild type partial length TAOK3 (M1 to T316 residues) expressed in mammalian expression system assessed as remaining activity at 1 uM by Kinomescan assay relative to control
# Sequence of Serine/threonine-protein kinase TAO3 (Homo sapiens) (Q9H2K8 whole entry, the tested form may be a part): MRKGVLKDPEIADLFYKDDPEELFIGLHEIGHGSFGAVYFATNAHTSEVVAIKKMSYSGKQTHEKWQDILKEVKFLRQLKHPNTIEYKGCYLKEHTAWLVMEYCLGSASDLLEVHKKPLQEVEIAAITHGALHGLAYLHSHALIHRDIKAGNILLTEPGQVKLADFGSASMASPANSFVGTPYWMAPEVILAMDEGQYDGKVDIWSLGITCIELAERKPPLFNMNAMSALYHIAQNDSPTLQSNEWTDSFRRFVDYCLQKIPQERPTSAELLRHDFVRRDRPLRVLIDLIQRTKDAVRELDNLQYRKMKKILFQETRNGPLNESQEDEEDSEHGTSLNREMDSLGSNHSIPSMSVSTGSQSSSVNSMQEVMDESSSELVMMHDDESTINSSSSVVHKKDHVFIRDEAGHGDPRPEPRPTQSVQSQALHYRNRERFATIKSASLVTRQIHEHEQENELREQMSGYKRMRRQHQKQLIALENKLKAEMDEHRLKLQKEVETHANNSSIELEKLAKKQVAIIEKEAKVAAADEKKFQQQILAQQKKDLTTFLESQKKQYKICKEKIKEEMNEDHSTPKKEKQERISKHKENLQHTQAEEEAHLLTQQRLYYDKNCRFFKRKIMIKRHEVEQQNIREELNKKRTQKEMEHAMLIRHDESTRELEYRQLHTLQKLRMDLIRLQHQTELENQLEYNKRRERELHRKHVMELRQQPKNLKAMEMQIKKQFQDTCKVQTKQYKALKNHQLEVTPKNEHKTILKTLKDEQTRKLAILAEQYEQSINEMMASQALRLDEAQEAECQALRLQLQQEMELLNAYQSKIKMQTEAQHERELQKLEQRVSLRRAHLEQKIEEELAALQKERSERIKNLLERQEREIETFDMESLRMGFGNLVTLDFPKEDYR
# [9] = target: Mitogen-activated protein kinase kinase kinase kinase 2 (Homo sapiens) (UniProt Q12851); experiment: Inhibition of human wild type partial length MAP4K2 (M1 to G318 residues) expressed in mammalian expression system assessed as remaining activity at 1 uM by Kinomescan assay relative to control
# [10] = target: Phosphatidylinositol 5-phosphate 4-kinase type-2 gamma (Homo sapiens) (UniProt Q8TBX8); experiment: Inhibition of human wild type full length PIP5K2C (M1 to A421 residues) expressed in mammalian expression system assessed as remaining activity at 1 uM by Kinomescan assay relative to control
# [11] = target: Mitogen-activated protein kinase kinase kinase kinase 5 (Homo sapiens) (UniProt Q9Y4K4); experiment: Inhibition of human wild type MAP4K5 assessed as remaining activity at 1 uM by MRC screening assay relative to control
# [12] = target: Tyrosine-protein kinase JAK2 (Homo sapiens) (UniProt O60674); experiment: Inhibition of human wild type JAK2 (JH1) domain assessed as remaining activity at 1 uM by MRC screening assay relative to control
# [13] = target: Phosphatidylinositol 4-phosphate 5-kinase type-1 gamma (Homo sapiens) (UniProt O60331); experiment: Inhibition of human wild type full length PIP5K1C (M1 to T668 residues) expressed in mammalian expression system assessed as remaining activity at 1 uM by Kinomescan assay relative to control
# [14] = target: cAMP-dependent protein kinase catalytic subunit PRKX (Homo sapiens) (UniProt P51817); experiment: Inhibition of human wild type partial length PRKX (M1 to F358 residues) expressed in bacterial expression system assessed as remaining activity at 1 uM by Kinomescan assay relative to control
# [15] = target: Dual serine/threonine and tyrosine protein kinase (Homo sapiens) (UniProt Q6XUX3); experiment: Inhibition of human wild type full length RIPK5 (M1 to T929 residues) expressed in mammalian expression system assessed as remaining activity at 1 uM by Kinomescan assay relative to control
# Sequence of Dual serine/threonine and tyrosine protein kinase (Homo sapiens) (Q6XUX3 whole entry, the tested form may be a part): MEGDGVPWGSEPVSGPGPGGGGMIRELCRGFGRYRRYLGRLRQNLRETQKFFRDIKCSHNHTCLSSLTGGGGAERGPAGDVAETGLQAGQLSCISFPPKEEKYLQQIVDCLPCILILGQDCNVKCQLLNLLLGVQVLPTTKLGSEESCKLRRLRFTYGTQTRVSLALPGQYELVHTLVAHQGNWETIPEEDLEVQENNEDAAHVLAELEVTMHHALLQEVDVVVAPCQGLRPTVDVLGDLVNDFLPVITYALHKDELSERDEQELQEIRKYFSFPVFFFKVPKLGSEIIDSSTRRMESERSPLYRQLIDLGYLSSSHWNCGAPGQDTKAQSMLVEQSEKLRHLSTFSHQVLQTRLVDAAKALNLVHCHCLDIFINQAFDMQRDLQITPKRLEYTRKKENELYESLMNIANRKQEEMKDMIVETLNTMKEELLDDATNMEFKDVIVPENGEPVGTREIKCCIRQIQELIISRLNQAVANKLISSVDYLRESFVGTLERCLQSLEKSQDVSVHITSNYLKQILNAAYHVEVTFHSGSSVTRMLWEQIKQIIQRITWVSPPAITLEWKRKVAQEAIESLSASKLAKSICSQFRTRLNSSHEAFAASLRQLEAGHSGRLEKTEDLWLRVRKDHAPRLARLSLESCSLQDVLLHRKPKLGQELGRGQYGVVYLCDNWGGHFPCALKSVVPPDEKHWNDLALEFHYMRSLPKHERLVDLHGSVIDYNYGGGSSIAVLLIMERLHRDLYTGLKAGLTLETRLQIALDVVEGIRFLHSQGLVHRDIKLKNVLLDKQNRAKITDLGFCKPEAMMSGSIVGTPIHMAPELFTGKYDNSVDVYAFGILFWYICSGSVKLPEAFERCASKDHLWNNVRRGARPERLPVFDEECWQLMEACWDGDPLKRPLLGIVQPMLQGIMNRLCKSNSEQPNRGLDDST
# [16] = target: Serine/threonine-protein kinase PAK 4 (Homo sapiens) (UniProt O96013); experiment: Inhibition of human wild type PAK4 assessed as remaining activity at 1 uM by MRC screening assay relative to control
# [17] = target: Serine/threonine-protein kinase TAO1 (Homo sapiens) (UniProt Q7L7X3); experiment: Inhibition of human wild type TAOK1 assessed as remaining activity at 1 uM by MRC screening assay relative to control
# Sequence of Serine/threonine-protein kinase TAO1 (Homo sapiens) (Q7L7X3 whole entry, the tested form may be a part): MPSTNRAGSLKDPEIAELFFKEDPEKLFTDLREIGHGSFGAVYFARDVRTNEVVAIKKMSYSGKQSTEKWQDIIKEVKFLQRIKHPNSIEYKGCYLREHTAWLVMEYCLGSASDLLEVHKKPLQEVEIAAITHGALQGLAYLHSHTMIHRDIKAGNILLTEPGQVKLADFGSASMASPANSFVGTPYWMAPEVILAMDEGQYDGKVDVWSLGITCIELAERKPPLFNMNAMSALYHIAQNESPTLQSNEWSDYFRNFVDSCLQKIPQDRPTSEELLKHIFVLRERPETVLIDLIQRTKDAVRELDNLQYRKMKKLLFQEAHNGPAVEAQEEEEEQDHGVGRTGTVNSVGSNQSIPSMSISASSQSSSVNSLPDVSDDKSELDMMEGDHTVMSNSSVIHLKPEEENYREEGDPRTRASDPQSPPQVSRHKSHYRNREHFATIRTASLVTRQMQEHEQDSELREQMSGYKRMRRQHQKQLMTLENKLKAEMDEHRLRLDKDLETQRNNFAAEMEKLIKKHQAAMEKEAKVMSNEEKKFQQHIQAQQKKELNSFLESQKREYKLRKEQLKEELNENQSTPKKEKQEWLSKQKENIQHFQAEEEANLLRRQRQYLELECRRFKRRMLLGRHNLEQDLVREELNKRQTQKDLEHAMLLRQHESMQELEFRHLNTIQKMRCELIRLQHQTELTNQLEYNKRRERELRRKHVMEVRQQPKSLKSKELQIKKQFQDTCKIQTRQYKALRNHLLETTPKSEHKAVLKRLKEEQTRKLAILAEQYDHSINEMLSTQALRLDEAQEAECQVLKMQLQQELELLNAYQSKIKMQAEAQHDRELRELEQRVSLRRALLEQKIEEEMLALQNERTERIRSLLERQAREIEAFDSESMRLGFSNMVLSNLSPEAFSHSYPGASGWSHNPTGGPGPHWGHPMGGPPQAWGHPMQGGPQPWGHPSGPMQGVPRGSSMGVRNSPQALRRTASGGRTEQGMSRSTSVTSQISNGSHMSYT
# [18] = target: Dual specificity mitogen-activated protein kinase kinase 4 (Homo sapiens) (UniProt P45985); experiment: Inhibition of human wild type partial length MEK4 (S84 to D399 residues) expressed in mammalian expression system assessed as remaining activity at 1 uM by Kinomescan assay relative to control
# [19] = target: Serine/threonine-protein kinase TAO2 (Homo sapiens) (UniProt Q9UL54); experiment: Inhibition of human wild type partial length TAOK2 (M1 to A320 residues) expressed in mammalian expression system assessed as remaining activity at 1 uM by Kinomescan assay relative to control
# [20] = target: Myosin light chain kinase family member 4 (Homo sapiens) (UniProt Q86YV6); experiment: Inhibition of human wild type […] length MYLK4 (V79 to S380 residues) expressed in bacterial expression system assessed as remaining activity at 1 uM by Kinomescan assay relative to control
# [21] = target: Serine/threonine-protein kinase PAK 5 (Homo sapiens) (UniProt Q9P286); experiment: Inhibition of human wild type PAK7 expressed in Escherichia coli assessed as remaining activity using RRRLSFAEPG peptide substrate at 1 uM by MRC screening assay relative to control
# [22] = target: Serine/threonine-protein kinase PAK 6 (Homo sapiens) (UniProt Q9NQU5); experiment: Inhibition of human wild type PAK6 assessed as remaining activity at 1 uM by MRC screening assay relative to control
# [23] = target: Citron Rho-interacting kinase (Homo sapiens) (UniProt O14578); experiment: Inhibition of wild-type human partial length CIT (M68 to E432 residues) expressed in bacterial expression system assessed as residual binding level at 1 uM by Kinomescan method relative to control
# [24] = target: Mitogen-activated protein kinase kinase kinase 3 (Homo sapiens) (UniProt Q99759); experiment: Inhibition of human wild type partial length MAP3K3 (E320 to Y626 residues) expressed in mammalian expression system assessed as remaining activity at 1 uM by Kinomescan assay relative to control
# [25] = target: Mitogen-activated protein kinase kinase kinase 19 (Homo sapiens) (UniProt Q56UN5); experiment: Inhibition of wild-type human partial length YSK4 (T1019 to H1328 residues) expressed in mammalian expression system assessed as residual binding level at 1 uM by Kinomescan method relative to control
# [26] = target: Mitogen-activated protein kinase kinase kinase 2 (Homo sapiens) (UniProt Q9Y2U5); experiment: Inhibition of wild-type human partial length MAP3K2 (S315 to H619 residues) expressed in mammalian expression system assessed as residual binding level at 1 uM by Kinomescan method relative to control
# [27] = target: Microtubule-associated serine/threonine-protein kinase 1 (Homo sapiens) (UniProt Q9Y2H9); experiment: Inhibition of wild-type human partial length MAST1 (S346 to V730 residues) expressed in mammalian expression system assessed as residual activity at 1 uM by Kinomescan method relative to control
SMILES,IC50 [1] [nM],IC50 [2] [nM],IC50 (Murine hepatitis virus) [nM],IC50 (Murine hepatitis virus; read-out: pIC50 (converted)) [nM],also measured
CN(C)CC#Cc1ccc2[nH]c3c(c2c1)-c1nc(N)ncc1CCCC3,430,683,–,–,–
Nc1ncc2c(n1)-c1c([nH]c3ccc(C#Cc4ccncc4)cc13)CCC2,22,885,485,490,–
CCC(CC)COC(=O)[C@H](C)N[P@](=O)(OC[C@H]1O[C@@](C#N)(c2ccc3c(N)ncnn23)[C@H](O)[C@@H]1O)Oc1ccccc1,–,–,–,–,IC50 (SARS-CoV-2): 86.4 nM
CN(C)CC#Cc1ccc2[nH]c3c(c2c1)-c1nc(N)ncc1CCC3,–,–,–,–,Activity (SH-SY5Y): Active; inhibition at 1 µM [3]: > 91%; inhibition at 1 µM [4]: > 75%; remaining at 0.5 h [5]: 12.6%; inhibition (Calu-3 [6]): Active
CC(C)(O)C#Cc1ccc2[nH]c3c(c2c1)-c1nc(N)ncc1CCCC3,61,2450,8470,8510,–
CC(C)(O)C#Cc1ccc2[nH]c3c(c2c1)-c1nc(N)ncc1CC3,–,220,–,–,–
Nc1ncc2c(n1)-c1c([nH]c3ccc(-c4ccc(F)cc4)cc13)CCCC2,–,2560,–,–,–
Nc1ncc2c(n1)-c1c([nH]c3ccc(C#Cc4ccncc4)cc13)CC2,–,2980,–,–,–
Cn1cncc1C#Cc1ccc2[nH]c3c(c2c1)-c1nc(N)ncc1CC3,77,> 10000,8050,8130,–
Nc1ncc2c(n1)-c1c([nH]c3ccc(C#CC4CC4)cc13)CC2,–,300,–,–,–
Cc1cccc(/C=N/Nc2cc(N3CCOCC3)nc(OCCc3ccccn3)n2)c1,–,–,–,–,Activity (SH-SY5Y): Active; inhibition (Caco-2): Active; inhibition (Calu-3 [7]): Active; inhibition (Calu-3 [6]): Active
Nc1ncc2c(n1)-c1c([nH]c3ccc(-c4ccc(F)cc4)cc13)CCC2,9.3,11.4,71,70.8,Activity (SH-SY5Y): Active; IC50 (SARS-CoV-2): 73.3 nM; inhibition (Calu-3 [6]): Active
CN(C)CC#Cc1ccc2[nH]c3c(c2c1)-c1nc(N)ncc1CC3,–,123,–,–,–
Cn1cncc1C#Cc1ccc2[nH]c3c(c2c1)-c1nc(N)ncc1CCCC3,290,> 10000,–,–,–
CC(C)(O)C#Cc1ccc2[nH]c3c(c2c1)-c1nc(N)ncc1CCC3,–,–,–,–,Activity [8]: < 10%; Activity [9]: < 10%; Activity [10]: < 10%; Activity [11]: < 10%; Activity [12]: < 10%; Activity [13]: < 10%; Activity [14]: < 10%; Activity [15]: < 10%; Activity [16]: < 10%; Activity [17]: < 10%; Activity [18]: < 10%; Activity [19]: < 10%; Activity [20]: < 10%; Activity [21]: < 10%; Activity [22]: < 10%; Activity [23]: < 10%; Activity [24]: < 10%; Activity [25]: < 10%; Activity [26]: < 10%
Cn1cc(-c2ccc3[nH]c4c(c3c2)-c2nc(N)ncc2CCC4)cn1,26,1560,666,661,–
Nc1ncc2c(n1)-c1c([nH]c3ccc(C4CC4)cc13)CCCC2,–,–,> 10000,> 10000,IC50 (SARS-CoV-2): > 10000 nM; Activity [27]: 32%
Nc1ncc2c(n1)-c1c([nH]c3ccc(-c4ccc(F)cc4)cc13)CC2,8.2,380,713,708,–
Nc1ncc2c(n1)-c1c([nH]c3ccc(C#Cc4ccncc4)cc13)CCCC2,580,5290,–,–,–
Cn1cc(-c2ccc3[nH]c4c(c3c2)-c2nc(N)ncc2CC4)cn1,34,4970,5350,5370,–
Cc1cccc(/C=N/Nc2cc(N3CCOCC3)n3nc(-c4ccncc4)cc3n2)c1,–,–,40.4,40.7,–
Nc1ncc2c(n1)-c1c([nH]c3ccc(C#CC4CC4)cc13)CCCC2,75,700,1800,1780,–
CC(C)C(O)C#Cc1ccc2[nH]c3c(c2c1)-c1nc(N)ncc1CCC3 (stereo not given),–,45.7,–,–,–
CC(C)C(O)C#Cc1ccc2[nH]c3c(c2c1)-c1nc(N)ncc1CC3 (stereo not given),–,1170,1920,1910,–
